From patent publication US8168568B1, “Combinatorial therapy for protein signaling diseases” (The United States of America, as represented by the …, priority 2003, dated 2012)

Legend:
Format in all cases: cell-based, human
EGFr signaling pathway = assay: Reverse phase protein microarray of EGFr pathway nodes in EGF-stimulated colon cancer cells treated with kinase inhibitors; conditions: CCL-250 cells, drug treatment 30 minutes, then EGF 0.1 μg/mL; FIG. 6A
Experimental: The epidermal growth factor receptor (EGFr) signaling pathway, which is a well-characterized pathway where interdependence is already known, was investigated. […]. […] In these experiments, colon cancer cells, ATCC CCL-250, which over-express EGFr 25-75% of the time, were cultured. […] Impact of drug compounds on the pathway was evaluated by treating the cells with a drug compound or a combination of drug compounds for 30 minutes. […] Cells were then scraped from the bottom surface of the wells using a pipet tip and placed into mini-centrifuge tubes. The lysates were then vortexed, boiled for 5 minutes, and centrifuged for 20 minutes at 14,000 rpm. The lysates were arrayed using the reverse phase microarray techniques described in Paweletz et al. […] In contrast to forward-phase protein arrays that immobilize the probe, the reverse phase protein array immobilizes the whole repertoire of patient proteins (e.g. by a nitrocellulose substrate) that represent the state of individual tissue cell populations. Probes are then applied to the immobilized proteins. […] The phospho-antibodies bind to the phosphorylated, or activated, form of the protein. The other antibody binds to and is used to determine the total amount of the protein in the sample. Using the values from these two antibodies, the relative activation of that proteins may be calculated as the ratio of phosphorylated protein to total protein.

[1] = tested on: EGF stimulated ATCC CCL-250 cancer cells; assay: 10 day colony growth bioassay; conditions: EGF stimulated CCL-250, FIG. 9
[2] = tested on: c-erbB1, MEK, and ERK kinases; assay: Kinase substrate array time course with and without MEK inhibitor; conditions: CCL250, 10 uM pretreatment 1 hour, 100 ng/ml EGF; FIG. 18B
Experimental: Separate aliquots at a series of EGF post treatment time intervals were taken and cell lysates were prepared for kinase substrate array analysis.
To determine if this technology can capture the time-course of linked kinase network events, a series of known connected phosphorylation substrates were analyzed: epidermal growth factor receptor (c-erbB1), MEK, and ERK kinases using a colon cancer cell line (CCL250) with over-expressed c-erbB1 receptor levels. […] When these events are analyzed by reverse phase array, both ERK and MEK phosphorylation show a coordinately linked kinetic profile which is expected since ERK is a direct substrate of MEK kinase (FIG. 18A). […] Phosphorylation of kinase substrates is a transient event, as phosphatases promptly dephosphorylate the substrate as the cascade continues.

EGFR = EGFR activation time course by reverse phase protein array; conditions: for EGFR receptor phosphorylation: time course experiments, 100 ng/ml EGF, 10 μM PGE2, or 25 ng/ml TGF-α
Experimental: For the time course assays, colon cancer cells were plated in 24-well plates (1×10e5 cells/well), grown to 80% confluency, and serum-starved for 24 hours. […] Unstimulated cells were used as a control for basal activity. To assess TGF-inhibition, cells were pretreated with 100 ng/ml neutralizing TGF-α antibody for 1 hour before stimulation. […] To harvest cells at each timepoint, a number of cells were removed from wells by gentle scraping and suspended in 100 μL of heated SDS sample buffer (50% Tissue Protein Extraction Reagent, 48% 2× Tris-Glycine SDS Sample Buffer and 2% β-Mercaptoethanol) containing 10 μL of protease inhibitor cocktail per ml of lysate. Cells were immediately transferred to a chilled tube.
The reverse-phase protein array were as previously described (Paweletz et al). Briefly, cell lysates were subjected to one freeze/thaw cycle followed by vigorous vortexing to ensure complete liberation of proteins from the cytosol and the cell membrane. Immediately prior to spotting onto nitrocellulose slides, the samples were boiled for 5 minutes to ensure complete denaturation. Samples were spun at high speed in a microcentrifuge to remove any remaining cellular debris. Nanoliter amounts of the samples were arrayed onto nitrocellulose coated slides (Schleicher and Schuell Bioscience Inc., Keene, N.H.). Each sample was spotted nine times to form a “square” pattern consisting of three dilutions, left to right (neat, 1:2, 1:4), and three replicates of each dilution, top to bottom. Sample buffer alone was spotted as a negative control.
Slides were prepared for signal development by incubating for 10 minutes in a 10% solution of Mild Re-Blot Plus (Chemicon Intl, Temecula, Calif.) to expose antigenic sites embedded in the nitrocellulose. This was followed by two 5-minute washes in PBS and incubation in a casein-based blocking solution (Applied Biosystems, Foster City, Calif.) for at least 1 hour. Signal was developed using an automated staining system based on avidin/biotin and peroxidase methodologies (DakoCytomation, Carpinteria, Calif.). Staining is completed by a 5-minute incubation with 3,3′diaminobenzidine tetrahydrochloride (DAB) which results in a brown-colored precipitate at the antigen site. After signal development, slides were scanned on an Epson flatbed scanner at 1200 dpi. Scanned images (saved as an inverted grayscale TIFF file in Adobe Photoshop version 5.5) were analyzed with ImageQuant version 5.2 software (Molecular Dynamics, Amersham, UK). The spot intensity after background correction was proportional to the concentration of the target protein. […]
Activation is expressed as the relative intensity of stimulated cells compared with unstimulated cells on reverse phase protein microarray. […]

COX-2 protein = COX-2 protein expression by reverse phase protein array and Western blot; conditions: colon cancer cells, every 24 hours over 72 hours; data not shown
Experimental: Lysates that were analyzed by Western blot were evaluated for protein concentration with the BCA Protein Assay Kit (Pierce, Rockford, Ill.). Details of Western analyses are well known. Briefly, equal amounts of proteins were fractionated on 4-20% SDS-PAGE gels and transferred to PVDF membranes. After sequential incubations with primary antibodies and peroxidase-conjugated goat anti-rabbit antibodies (Tropix, Bedford, Mass.), signal was developed using an enhanced chemiluminescent staining system (Tropix, Bedford, Mass.). Protein loading was normalized for phospho- and nonphospho-proteins with the total self-protein and β-actin, respectively.
Protein loading was controlled for by expressing COX-2 protein relative to β-actin.

EGFR receptor phosphorylation (EGFR)	Compound	shunting via the CREB node (relative expression of CREB) (EGFr signaling pathway)	also measured
can be induced	EGF: recombinant epidermal growth factor, EGFR ligand used as stimulus	–	–
can be induced	TGF-alpha: EGFR ligand used as stimulus	–	–

Second part, the compound before the results:

Compound	EGFR receptor phosphorylation (EGFR)	shunting via the CREB node (relative expression of CREB) (EGFr signaling pathway)	also measured
COc1cc2ncnc(Nc3cccc(Cl)c3)c2cc1OC [AG1478, 4-(3-chloroanilino)-6,7-dimethoxyquinazoline]	–	not seen	–
NC(=O)c1nnn(Cc2cc(Cl)c(C(=O)c3ccc(Cl)cc3)c(Cl)c2)c1N [CAI, carboxyamidotriazole]	–	–	inhibition of cell proliferation [1]: no significant-growth inhibition
COc1cccc(-c2cc(=O)c3ccccc3o2)c1N [PD98059, 2-(2′-amino-3′-methoxyphenyl)-oxanaphthalen-4-one]	–	causes shunting through this node	activation of ERK (EGFr signaling pathway): diminishing the activation of the next node along the pathway, ERK; phosphorylation of c-erbB1, MEK and ERK after EGF [2]: only ERK phosphorylation was effected
CCCCC[C@H](O)/C=C/[C@H]1[C@H](O)CC(=O)[C@@H]1C/C=C\CCCC(=O)O [PGE2, prostaglandin E2]	can be induced	–	EGFR activation with or without TGF-α inhibitor pretreatment (EGFR; harvested at 5 minutes, 100 ng/ml neutralizing TGF-α antibody 1 hour, FIG. 11): requirement of TGF-α for the activation of EGFR by PGE2; expression of COX-2 protein relative to β-actin (COX-2 protein): induced increased expression of COX-2 protein
